Reference: patent US20260297042A1, “BIARYLAMIDE DERIVATIVES AND THEIR USE AS PKMYT1 INHIBITORS” (CANCER RESEARCH TECHNOLOGY LIMITED, priority 2023, published 2026)

Experiments:
Human PKMYT1 = target: T1, Human PKMYT1 (Homo sapiens, UniProt Q99640); experiment: PKMYT1 biochemical ADP-Glo enzymatic assay; details: ADP-Glo; 15 nM PKMYT1 kinase domain, 500 µM ATP, 60 minutes at 26° C.; banded
T1 construct: Human PKMYT1 75-362 was cloned as a TEV cleavable 6xHis fusion; 6xHis (TEV cleavable) (cleaved yes); made in house; host or cells: bacterial cells
T1 sequence (Q99640 75-362): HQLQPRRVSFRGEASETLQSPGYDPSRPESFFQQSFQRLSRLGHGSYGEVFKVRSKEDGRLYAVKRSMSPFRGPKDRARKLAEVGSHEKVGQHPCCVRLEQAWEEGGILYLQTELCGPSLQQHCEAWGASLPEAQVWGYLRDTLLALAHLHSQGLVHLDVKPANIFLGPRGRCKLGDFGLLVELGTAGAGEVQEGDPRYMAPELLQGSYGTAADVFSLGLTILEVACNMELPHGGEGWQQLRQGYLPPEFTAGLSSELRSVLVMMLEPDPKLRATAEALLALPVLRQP
Outline: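 IC50 derived from luminescence (ADP-Glo Max) after PKMYT1 kinase domain, 15 nM, turned over 500 µM ATP for 60 min at 26 °C. Buffer contained 10 mM MgCl2, 1 mM EGTA and 0.01% Brij-35 at pH 7.5.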

[1] = target: T2, Cellular PKMYT1 Biomarker CDK1 pT14 (Homo sapiens, UniProt Q99640); experiment: Inhibition of cellular PKMYT1 biomarker CDK1 pT14 in OVCAR 3 cells (immunoblot); assay type: cell-based; details: 20 hours incubation
T2 construct: read-out CDK1 phospho-T14 immunoblot
T2 sequence (Q99640 1-499): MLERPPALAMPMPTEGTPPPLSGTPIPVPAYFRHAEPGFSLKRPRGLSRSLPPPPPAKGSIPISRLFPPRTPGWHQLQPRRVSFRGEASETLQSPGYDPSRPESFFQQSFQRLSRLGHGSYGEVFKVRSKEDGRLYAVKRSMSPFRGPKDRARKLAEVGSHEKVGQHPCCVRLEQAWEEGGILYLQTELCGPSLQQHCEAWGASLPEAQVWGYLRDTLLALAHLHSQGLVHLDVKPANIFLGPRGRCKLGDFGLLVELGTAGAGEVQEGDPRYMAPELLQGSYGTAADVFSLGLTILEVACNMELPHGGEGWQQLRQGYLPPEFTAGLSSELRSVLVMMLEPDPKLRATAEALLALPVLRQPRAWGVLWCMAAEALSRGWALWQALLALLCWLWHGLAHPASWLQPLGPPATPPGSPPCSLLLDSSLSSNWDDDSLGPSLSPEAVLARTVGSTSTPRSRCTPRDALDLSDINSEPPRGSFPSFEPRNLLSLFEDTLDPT
Outline: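 Confluent OVCAR 3 cells treated with a compound concentration range for 20 h at 37 °C. Lysates analysed by automated capillary immunoblot for CDK1 phospho-T14, with vinculin, fluorescence detection; IC50 by regression.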

KYSE-30 cells = experiment: Cancer cell line proliferation assay, nuclear count, KYSE-30 (normal CCNE1); assay type: cell-based; details: Homo sapiens, normal CCNE1 expression, banded, read-out: KYSE30 GI50
Protocol: (§1) h-TERT-RPE1 TP53−/− and CCNE1 high expressing clones (clone cell lines 7 and 15) were treated with test compounds dissolved in DMSO at serially diluted concentrations alongside a DMSO only control for around 6 population doublings time. Cells were then fixed with 4% Paraformaldehyde and the cell nuclei were stained with DAPI (Sigma D9542). Images covering each well were acquired by an Opera Phenix® High-Content Screening System (PerkinElmer). Image analysis was performed using Harmony® high-content analysis software (PerkinElmer). Data analysis was performed using Microsoft Excel® and GI50 estimates generated with GraphPad Prism v9. Percent nuclear count was compared to vehicle control wells and used to measure inhibition of proliferation.
(§2) Cancer cell lines with either normal (KYSE-30) or amplified CCNE1 expression (OVCAR3-ovarian cancer) were evaluated for their sensitivity to PKMYT1 inhibitors in a nuclear count assay as described above for h-TERT-RPE1 TP53−/− and a CCNE1 high expressing clones, taking into account the slower cell cycle division times of these lines.

WEE1 = target: T3, WEE1 (Homo sapiens, UniProt P30291); experiment: Selectivity versus WEE1 assay (ADP-Glo enzymatic assay); assay type: biochemical; details: banded; for IC50: ADP-Glo, 15 nM WEE1, 60 minutes at 26° C.; for PKMYT1 vs. WEE1 selectivity: fold difference in selectivity for PKMYT1 over WEE1, ">N" = at least in this band but could be higher
T3 construct: purchased Thermo Fisher PR7373A
Outline: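 Inhibition is measured as reduced ADP production, detected by luminescence with ADP-Glo, after enzyme (15 nM) and 30 µM ATP react for 60 min at 26° C in 1% DMSO-containing HEPES buffer, pH 7.5. Data are accepted only if replicate IC50s fall within 3-fold and r2 exceeds 0.9.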

OVCAR3 cells = experiment: Cancer cell line proliferation assay, nuclear count, OVCAR3 (CCNE1-amplified); assay type: cell-based; details: banded; for Selectivity ratio KYSE30 GI50 vs. OVCAR3 GI50: >N = at least in this band; for GI50: Homo sapiens, OVCAR-3, CCNE1-amplified ovarian cancer, nuclear count
Protocol: as §1, §2

[2] = tested on: h-TERT-RPE1 TP53−/− CCNE1 high expressing clone cell line 15 (CL15); experiment: Nuclear count cell proliferation assay, CCNE1 high expressing clone cell line 15 (CL15) of h-TERT-RPE1 TP53−/−; assay type: cell-based; details: banded; for Selectivity Ratio Wt vs. CL15: GI50 ratio RPE Wt vs. CL15, >N = at least in this band; for GI50: h-TERT-RPE1 TP53−/− CCNE1 high clone CL15, nuclear count, around 6 population doublings, read-out: RPE CL15 GI50
Protocol: as §1

[3] = tested on: h-TERT-RPE1 TP53−/− parental cells; experiment: Nuclear count cell proliferation assay, parental (wild type) h-TERT-RPE1 TP53−/− cells; assay type: cell-based; details: hTERT-RPE1, h-TERT-RPE1 TP53−/− parental (Wt), around 6 population doublings, banded, read-out: RPE Wt GI50
Protocol: as §1

[4] = tested on: h-TERT-RPE1 TP53−/− CCNE1 high expressing clone cell line 7 (CL7); experiment: Nuclear count cell proliferation assay, CCNE1 high expressing clone cell line 7 (CL7) of h-TERT-RPE1 TP53−/−; assay type: cell-based; details: banded; for Selectivity Ratio Wt vs. CL7: GI50 ratio RPE Wt vs. CL7, >N = at least in this band; for GI50: hTERT-RPE1, h-TERT-RPE1 TP53−/− CCNE1 high clone CL7, nuclear count, around 6 population doublings, read-out: RPE CL7 GI50
Protocol: as §1

[5] = tested on: pancreatic PDX model with increased expression of CCNE1; details: alone or in combination with Gemcitabine; Gallo et al., 2022; cited from earlier work
[6] = tested on: breast and ovarian cancers overexpressing CCNE1; details: alone or in combination with Gemcitabine; Gallo et al., 2022; cited from earlier work
solid tumours = details: clinicaltrials.gov; cited from earlier work

T3 sequence (P30291 whole entry): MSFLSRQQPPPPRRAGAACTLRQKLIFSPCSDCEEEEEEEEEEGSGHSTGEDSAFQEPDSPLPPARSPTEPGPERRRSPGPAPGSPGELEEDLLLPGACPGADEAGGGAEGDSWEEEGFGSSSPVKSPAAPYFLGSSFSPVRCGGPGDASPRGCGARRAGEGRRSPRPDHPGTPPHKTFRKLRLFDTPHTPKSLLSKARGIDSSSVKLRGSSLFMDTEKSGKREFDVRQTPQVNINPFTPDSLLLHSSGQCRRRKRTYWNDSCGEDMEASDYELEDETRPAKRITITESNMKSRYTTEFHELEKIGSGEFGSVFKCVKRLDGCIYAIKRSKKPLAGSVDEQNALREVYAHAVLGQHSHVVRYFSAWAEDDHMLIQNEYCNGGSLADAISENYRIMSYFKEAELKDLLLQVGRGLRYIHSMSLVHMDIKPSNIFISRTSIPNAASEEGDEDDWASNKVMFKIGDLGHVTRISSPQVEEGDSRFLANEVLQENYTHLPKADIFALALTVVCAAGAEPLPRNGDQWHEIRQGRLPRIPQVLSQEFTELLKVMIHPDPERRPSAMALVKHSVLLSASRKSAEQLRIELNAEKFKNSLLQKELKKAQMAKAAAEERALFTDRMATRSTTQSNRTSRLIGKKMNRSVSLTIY

Row | IC50 (Human PKMYT1) [µM] | IC50 [1] [µM] | IC50 (WEE1) [µM] | PKMYT1 vs. WEE1 selectivity (WEE1) | GI50 (OVCAR3 cells) [µM] | SMILES | GI50 (KYSE-30 cells) [µM] | Selectivity ratio KYSE30 GI50 vs. OVCAR3 GI50 (OVCAR3 cells) | Selectivity Ratio Wt vs. CL15 [2] | GI50 [2] [µM] | GI50 [3] [µM] | Selectivity Ratio Wt vs. CL7 [4] | GI50 [4] [µM] | efficacy in vivo [5] | efficacy in vivo [6] | toxicity in clinical trials (solid tumours)
1 | 0.05 to 1 | 0.1 to 1 | > 11 | >X (100-<1000 fold) | 0.5 to 3 | Cc1ccc(O)c(C)c1NC(=O)c1cnc(Nc2cc(C(F)(F)F)n(C)n2)s1 [BAA-047] | 3 to 10 | X (3-<10 fold) | – | – | – | – | – | – | – | –
2 | < 0.05 | – | > 11 | Y (1000-5000 fold) | 3 to 10 | Cc1ccc(O)c(C)c1NC(=O)c1cnc(Nc2ccn(CC(=O)N3CCCC3)n2)s1 [BAA-148, N-(3-hydroxy-2,6-dimethyl-phenyl)-2-[[1-(2-oxo-2-pyrrolidin-1-yl-ethyl)pyrazol-3-yl]amino]thiazole-5-carboxamide] | > 10 | X (3-<10 fold) | X (3-<10 fold) | 0.5 to 3 | 0.5 to 3 | – | – | – | – | –
3 | < 0.05 | – | > 11 | Y (1000-5000 fold) | 3 to 10 | CCN(CC)C(=O)Cn1ccc(Nc2ncc(C(=O)Nc3c(C)ccc(O)c3C)s2)n1 [BAA-173, 2-[[1-[2-(diethylamino)-2-oxo-ethyl]pyrazol-3-yl]amino]-N-(3-hydroxy-2,6-dimethyl-phenyl)thiazole-5-carboxamide] | > 10 | >X (3-<10 fold) | – | – | 0.5 to 3 | X (3-<10 fold) | < 0.5 | – | – | –
4 | < 0.05 | – | > 11 | Y (1000-5000 fold) | 3 to 10 | Cc1ccc(O)c(C)c1NC(=O)c1cnc(Nc2ccn(CC(=O)N3CC(F)(F)C(F)(F)C3)n2)s1 [BAA-181, N-(3-hydroxy-2,6-dimethyl-phenyl)-2-[[1-[2-oxo-2-(3,3,4,4-tetrafluoropyrrolidin-1-yl)ethyl]pyrazol-3-yl]amino]thiazole-5-carboxamide] | > 10 | >X (3-<10 fold) | Y (10-30 fold) | < 0.5 | 0.5 to 3 | X (3-<10 fold) | < 0.5 | – | – | –

Continued, compound first:

Row | SMILES | IC50 (Human PKMYT1) [µM] | IC50 [1] [µM] | IC50 (WEE1) [µM] | PKMYT1 vs. WEE1 selectivity (WEE1) | GI50 (OVCAR3 cells) [µM] | GI50 (KYSE-30 cells) [µM] | Selectivity ratio KYSE30 GI50 vs. OVCAR3 GI50 (OVCAR3 cells) | Selectivity Ratio Wt vs. CL15 [2] | GI50 [2] [µM] | GI50 [3] [µM] | Selectivity Ratio Wt vs. CL7 [4] | GI50 [4] [µM] | efficacy in vivo [5] | efficacy in vivo [6] | toxicity in clinical trials (solid tumours)
5 | Cc1ccc(O)c(C)c1NC(=O)c1cnc(Nc2ccn(CC(=O)N3CCN(C(=O)OC(C)(C)C)C(C)(C)C3)n2)s1 [BAA-179, tert-butyl 4-[2-[3-[[5-[(3-hydroxy-2,6-dimethyl-phenyl)carbamoyl]thiazol-2-yl]amino]pyrazol-1-yl]acetyl]-2,2-dimethyl-piperazine-1-carboxylate] | < 0.05 | – | 1 to 11 | X (100-<1000 fold) | < 0.5 | > 10 | Z (>30 fold) | Y (10-30 fold) | < 0.5 | 3 to 10 | – | – | – | – | –
6 | Cc1cc2c(C(N)=O)c(N)n(-c3c(C)ccc(O)c3C)c2nc1C [RP-6306] | – | – | – | – | – | – | – | – | – | – | – | – | has shown efficacy in vivo | has shown efficacy in vivo | –
7 | C=CCn1c(=O)c2cnc(Nc3ccc(N4CCN(C)CC4)cc3)nc2n1-c1cccc(C(C)(C)O)n1 [adavosertib] | – | – | – | – | – | – | – | – | – | – | – | – | – | – | presented significant toxicity
